US11278525B1, “Further molecules, compositions and methods for modulation of SIRT6” (SirTLab Corporation, priority 2017, dated 2022)

Molecular target: SIRT6 (Homo sapiens, UniProt Q8N6T7)
Test: SIRT6 enzymatic activity assay with fluorophore (AMC)-labeled Lysin-myristoylated histone H3 peptide (de-myristoylation, trypsin release)
Type: biochemical
Design: six-histidine tag; made in house; host or cells: Escherichia coli BL21
Conditions: for % Activity: amount tested 20 uM, Example 5, Table 9; for % activity 20 uM: compound 20 uM; for % activity 20 uM / % activity Max. conc. 100 uM: percentage of signal increase relative to control wells, Tables 1-2; for % activity Max. conc. 100 uM: compound 100 uM
Procedure: Human recombinant SIRT6 (sequence identifier: CAG33481.1; GI:4814651) was expressed in large scale in Escherichia coli strain BL21 as a six-histidine-tagged protein, after transformation of the expression plasmid pET28-SIRT6. The SIRT6 enzyme was purified from the bacteria culture broth in a two-step strategy. The first purification step was carried out by cation exchange chromatography on a HiTrap CM-Sepharose column (GE Healthcare) using an FPLC system. The second purification step was performed by immobilized metal ion affinity chromatography (IMAC) using a cobalt affinity column (Clontech).
The enzymatic activity assay is carried out in 96 or 384-well microplates using the purified recombinant SIRT6 and a fluorophore-labeled peptide substrate: 7-amino-4-methylcoumarin (AMC) that is quenched through conjugation to the C-terminal end of a Lysin-myristoylated histone H3 peptide. The activity assay procedure requires two steps, both performed in the same microplate. In the first step, the substrate is incubated with the purified SIRT6 protein along with the co-substrate nicotinamide adenine dinucleotide (NAD+). Upon de-myristoylation, the liberated ε-amino group of the lysine becomes a trypsin substrate. Treatment with trypsin in the second step releases the fluorophore resulting in an increase in fluorescence. Fluorescence intensity is measured using a fluorescent plate reader (excitation and emission at 370 nm and 450 nm, respectively). The fluorescence signal is directly proportional to SIRT6 enzymatic activity.
In the primary screening, compounds from a library (ChemDiv Inc.) were tested at a single concentration of 20 micromolar for their potential to modulate SIRT6 enzymatic activity. The assay was carried out in 384-well black well plates and all liquid handling was done using a robotic liquid handler. Purified recombinant SIRT6 (1 micromolar) was pre-incubated with each compound (or DMSO in control wells) for 15 minutes at room temperature. The first stage of the assay was initiated by adding a ‘substrate solution’ containing the myristoylated histone H3 peptide and NAD+(for final concentrations of 25 micromolar and 20 micromolar, respectively). After one hour incubation at 37° C., a Trypsin solution (6 mg/mL) was added for 30 minutes at room temperature. Fluorescence intensity was measured using a fluorescent plate reader (Tecan) with excitation at 370 nm and emission at 450 nm. The effect of each tested compound was evaluated by the change in the fluorescence intensity compared to control wells. […] To validate the primary screening results, each of the primary “hits” was re-tested, first at concentration of 20 micromolar in duplicates and later at a serial dilution ranging from 100 to 0.2 micromolar in triplicates.
Results of Assay—The results of the assay are given below in Tables 1-3.
Additional molecules were tested according to the methods and materials of Example 1. The amount tested was 20 uM for each molecule.

SIRT6, sequence (Q8N6T7 whole entry): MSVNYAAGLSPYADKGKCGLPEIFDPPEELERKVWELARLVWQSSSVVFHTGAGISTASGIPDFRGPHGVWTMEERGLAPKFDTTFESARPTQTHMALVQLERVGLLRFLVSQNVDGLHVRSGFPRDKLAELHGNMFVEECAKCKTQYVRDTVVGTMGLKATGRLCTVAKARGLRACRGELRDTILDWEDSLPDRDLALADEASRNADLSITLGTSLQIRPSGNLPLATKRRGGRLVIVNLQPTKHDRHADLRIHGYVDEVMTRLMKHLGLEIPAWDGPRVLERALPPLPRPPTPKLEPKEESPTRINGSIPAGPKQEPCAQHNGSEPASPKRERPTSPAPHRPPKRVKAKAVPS

Row | % Activity | % activity 20 uM | % activity Max. conc. 100 uM | Structure (SMILES)
1 | 21% |  |  | COc1ccc(C(=O)Oc2ccc3c(C)c(Cc4ccccc4)c(=O)oc3c2C)cc1 [Y040-7713]
2 | 49% |  |  | CN(C)CCNC(=O)C1CCN(c2nc3ccc(-c4cncnc4)nc3s2)CC1 [T387-0941]
3 | 24% |  |  | COc1cc(OC)cc(C(=O)Nc2nc3c(cc4c5c(cccc53)CC4)s2)c1 [3343-0231]
4 |  | 32% | 54% | CCOc1ccc(NC(=O)c2sc3nc(C)nc(N(C)c4ccc(C(C)C)cc4)c3c2C)cc1 [K937-0320]
5 |  | 61% | 87% | CCC(=O)Nc1ccc(-c2cc(C(=O)NCCCN3CCCC(C)C3)c3ccccc3n2)cc1 (stereo not shown) [L036-0174]
6 | 85% |  |  | CCN(CC)C(=O)C1CCN(C2=Nc3ccc(-c4ccncc4)nc3C2)CC1 [T387-1131]
7 |  |  | 61% | C=C(OC(C)CC)C1=C(C)NC2=C(C(=C)C(C(=C)OC)C(C)C2)C1c1ccc(N(CC)CC)cc1 (stereo not shown) [C142-0098]
8 | 396% |  |  | COC(=O)Cc1c(C)c2ccc(OC(=O)c3cccc(OC)c3)c(C)c2oc1=O [Y040-3572]
9 | 65% |  |  | COCCCNC(=O)C1CCN(c2nc3ccc(-c4cncnc4)nc3s2)CC1 [T387-0917]
10 | 23% |  |  | COC(=O)CSc1ccc(C#N)c(SCC(=O)OC)c1 [8012-3471]
11 |  | 30% | 28% | Cc1ccnc(NC(c2ccc(Cl)cc2Cl)c2ccc3cccnc3c2O)c1 (stereo not shown) [4896-3248]
12 | 27% |  |  | CC(=O)Oc1ccc(C(=O)Nc2nc3c(C)cc(C)cc3s2)cc1 [3659-2007]
13 | 529% |  |  | CCOC(=O)CCc1c(C)c2ccc(OC(=O)C3CCCCC3)c(C)c2oc1=O [Y04-4165]
14 | 156% |  |  | CCS(=O)(=O)c1nc2ccccc2n1CC(=O)Nc1ccccc1C(=O)OC [7398-1618]
15 | 294% |  |  | COc1ccc(C(=O)Oc2ccc3c4c(c(=O)oc3c2)CCC4)cc1OC [2712-4069]
16 | 115% |  |  | Cc1cc(C)c2sc(N(CCCN(C)C)C(=O)CCS(=O)(=O)c3ccccc3)nc2c1 [E677-2413]
17 | 33% |  |  | CCCCCCc1c(C)c2ccc(OC(C)=O)c(C)c2oc1=O [Y040-4544]
18 |  |  | 37% | COc1cc(NC(=O)c2csc(-c3cn(C)c4ncccc34)n2)cc(OC)c1 [P613-0273]
19 | 80% |  |  | CCOC(=O)CCc1c(C)c2ccc(OC(=O)c3cccc(OC)c3)c(C)c2oc1=O [Y041-1765]
20 |  | 36% | 22% | Cc1nc(Cc2ccc(F)cc2)sc1C(=O)Nc1ccc(F)cc1F [M830-6517]

Row | % Activity | % activity 20 uM | % activity Max. conc. 100 uM | Structure (SMILES)
21 | 51% |  |  | CN(C)CCCNC(=O)C1CCN(c2nc3ccc(-c4ccccc4)nc3s2)CC1 [T387-0668]
22 |  |  | 162% | Cn1c(-c2ccc3[nH]c(-c4ccc(N)cc4)nc3c2)nc2cc(N)ccc21 [6843-3168]
23 |  |  | 65% | Cc1ccccc1CSc1ncc(Sc2ccccc2)c(C(=O)NCc2ccccc2)n1 [D506-0127]
24 | 69% |  |  | CCN1CCN(C(=O)C2CCN(c3nc4ccc(-c5ccccc5)nc4s3)CC2)CC1 [T387-0670]
25 | 61% |  |  | Cc1c(Cc2ccccc2)c(=O)oc2cc(OC(=O)C3CCCCC3)ccc12 [Y040-7756]
26 | 140% |  |  | COc1ccc(C(=O)Oc2ccc3c(C)c(Cc4ccccc4)c(=O)oc3c2)cc1 [Y040-2026]
27 |  | 24% | 86% | O=c1[nH]c2ccc(Cl)cc2c(-c2ccccc2)c1Nc1ccc(Oc2ccccc2)cc1 [8013-3307]
28 | 61% |  |  | CCOc1cccc2sc(N(CCN(C)C)C(=O)CCS(=O)(=O)c3ccccc3)nc12 [E676-1270]
29 |  |  | 22% | Cc1cc(Nc2ccc(NC(=O)Nc3ccc4c(c3)CCCO4)cc2)nc(NC2CCCCC2)n1 [D577-0290]
30 | 105% |  |  | CC(=O)Oc1ccc2c3c(c(=O)oc2c1C)CCCC3 [3330-4541]
31 |  |  | 53% | CCCC1(CO)CCCN1C(=O)c1ccc2cc[nH]c2c1 (stereo not shown) [P933-1294]
32 |  | 63% | 50% | CCCNC(=O)c1ccc(-c2ccc(N3CCCCC3)nc2)cc1 [M715-0111]
33 | 95% |  |  | CN(C)CCCN(C(=O)CCS(=O)(=O)c1ccccc1)c1nc2c(F)cccc2s1 [E677-1397]
34 | 21% |  |  | Cc1nc2cc(-c3ccccc3)nn2c(C(C)(C)C)c1C [5197-0134]
35 | 80% |  |  | CN(C)CCN(C(=O)CCS(=O)(=O)c1ccccc1)c1nc2c(Cl)cccc2s1 [E676-1524]
36 | 111% |  |  | COc1cccc2sc(N(CCCN(C)C)C(=O)CCS(=O)(=O)c3ccccc3)nc12 [E677-1143]
37 | 50% |  |  | CCOc1ccccc1C(=O)Oc1ccc2c(C)c(CC(=O)OC)c(=O)oc2c1C [Y040-3573]
38 |  |  | 175% | C=C(C)C1Cc2cc(C(F)(F)F)ccc2N2CCCCC12 (stereo not shown) [V004-5575]
39 |  |  | 87% | CC(C)(C)c1ccc(C(=O)Nc2ccc3nnc(C4CCC4)n3c2)cc1 [M723-1403]
40 | 212% |  |  | Cc1c(Cc2ccccc2)c(=O)oc2cc(OC(=O)c3ccccc3)ccc12 [Y040-7755]

Row | % Activity | % activity 20 uM | % activity Max. conc. 100 uM | Structure (SMILES)
41 |  | 96% | 119% | CC(=O)Nc1ccc(-c2cc(C(=O)NCCN3CCN(C)CC3)c3cc(C)ccc3n2)cc1 [L036-2289]
42 |  |  | 36% | C=S(=C)(c1cc(Cl)ccc1Cl)n1c(/C=C/c2ccc(SC)cc2)nc2ccccc21 [C381-0232]
43 |  |  | 18% | COc1ccc(-c2nn3c(C)nnc3s2)cc1N [8018-6508]
44 | 71% |  |  | Cc1c(OC(=O)C2CCCCC2)ccc2c3c(c(=O)oc12)CCCC3 [Y040-0748]
45 | 60% |  |  | CCN(CC)CCN(C(=O)CCOc1ccccc1)c1nc2c(F)cccc2s1 [E676-4120]
46 | 121% |  |  | CCN(CC)CCN(C(=O)CCS(=O)(=O)c1ccccc1)c1nc2c(C)cccc2s1 [E676-3810]
47 |  |  | 48% | C=C(CS)Nc1ccc(CCCCC)cc1 [8008-0525]
48 | 42% |  |  | Cc1cc(C)c2c(N)c(-c3nnc(-c4ccccc4)o3)sc2n1 [8018-7776]
49 | 22% |  |  | CN1CCC(NC(=O)C2CCN(c3nc4ccc(-c5ccccc5)nc4s3)CC2)CC1 [T387-0726]
50 | 52% |  |  | COc1cc(C(=O)Oc2ccc3c4c(c(=O)oc3c2)CCC4)cc(OC)c1OC [2712-4061]
51 |  |  | 246% | C=C1Cc2ccc(C)cc2C2=C1C(c1ccc(F)cc1)=C(NCCOC)C2 [F025-0094]
52 |  | 53% | 221% | C=C(Cn1c(C)cc(C)c(C2=NC(c3ccccc3)=NC2)c1=O)NC1CCCCC1 [G744-0080]
53 |  |  | 75% | O=c1cc(O)c2sc3nc4c(cc3c2[nH]1)CCCCC4 [8018-3339]
54 | 264% |  |  | COc1ccc(C(=O)Oc2ccc3c4c(c(=O)oc3c2)CCC4)cc1 [2712-3502]
55 |  |  | 51% | O=C(Nc1ccc2nncn2c1)c1cccc(Cl)c1 [M723-0069]
56 |  |  | 11% | Cc1ccc(Nc2nc(C)c(C(=O)Nc3cccc(C(C)C)c3)s2)cc1 [M830-6572]
57 | 47% |  |  | CCCCCCOc1ccc(C(=O)Nc2nc3ccc(OC)cc3s2)cc1 [0938-8060]
58 |  |  | 29% | CCN1CCCC1CNC(=O)C1CCN(c2cc(C)nc3c(-c4ccc(Cl)cc4)c(C)nn23)CC1 (stereo not shown) [C535-0969]

Row | Structure (SMILES) | % Activity | % activity 20 uM | % activity Max. conc. 100 uM
59 | Cc1nc(-c2cccc(F)c2)c(N)c(N(C)C2CCN(C)CC2)n1 [V030-4128] |  |  | 210%
